In one experiment the target is T1, human EHMT2 913-1193 (Homo sapiens, UniProt Q96KQ7).
T1 construct: recombinant purified human EHMT2 913-1193, Viva; purchased Viva
T1 sequence (Q96KQ7 913-1193): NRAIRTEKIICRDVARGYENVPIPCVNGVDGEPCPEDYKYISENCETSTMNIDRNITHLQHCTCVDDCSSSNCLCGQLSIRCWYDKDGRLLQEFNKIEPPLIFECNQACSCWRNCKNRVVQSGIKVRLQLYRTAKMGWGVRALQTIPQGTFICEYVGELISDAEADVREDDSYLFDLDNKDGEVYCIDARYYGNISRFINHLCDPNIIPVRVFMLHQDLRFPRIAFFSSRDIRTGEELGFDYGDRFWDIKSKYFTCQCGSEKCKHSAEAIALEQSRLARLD
Briefly: EHMT2 enzyme assay on histone peptide substrate. In kind it is biochemical. To be noted: Table 3; histone H3 1-15 peptide, balanced conditions; read-out: EHMT2 PEP (IC50 μM). The source says:
Recombinant purified human EHMT2 913-1193 ([…]) synthesized by Viva was used for all experiments. Biotinylated histone peptides were synthesized by Biopeptide and HPLC-purified to >95% purity. Streptavidin Flashplates and seals were purchased from PerkinElmer and 384 Well V-bottom Polypropylene Plates were from Greiner. ^3H-labeled S-adenosylmethionine (^3H-SAM) was obtained from American Radiolabeled Chemicals with a specific activity of 80 Ci/mmol. Unlabeled SAM and S-adenosylhomocysteine (SAH) were obtained from American Radiolabeled Chemicals and Sigma-Aldrich respectively. Flashplates were washed in a Biotek ELx-405 with 0.1% Tween. 384-well Flashplates and 96-well filter binding plates were read on a TopCount microplate reader (PerkinElmer). Compound serial dilutions were performed on a Freedom EVO (Tecan) and spotted into assay plates using a Thermo Scientific Matrix PlateMate (Thermo Scientific). Reagent cocktails were added by Multidrop Combi (Thermo Scientific).
10-point curves of test compounds were made on a Freedom EVO (Tecan) using serial 3-fold dilutions in DMSO, beginning at 2.5 mM (final top concentration of compound was […] and the DMSO was 2%). A 1 μL aliquot of the inhibitor dilution series was spotted in a polypropylene 384-well V-bottom plate (Greiner) using a Thermo Scientific Matrix PlateMate (Thermo Scientific). The 100% inhibition control consisted of 1 mM final concentration of the product inhibitor S-adenosylhomocysteine (SAH, Sigma-Aldrich). Compounds were incubated for 30 minutes with 40 μL per well of 0.031 nM EHMT2 (recombinant purified human EHMT2 913-1193, Viva) in 1× assay buffer (20 mM Bicine [pH 7.5], 0.002% Tween 20, 0.005% Bovine Skin Gelatin and 1 mM TCEP). 10 μL per well of substrate mix comprising assay buffer, ^3H-SAM (^3H-labeled S-adenosylmethionine, American Radiolabeled Chemicals, specific activity of 80 Ci/mmol), unlabeled SAM (American Radiolabeled Chemicals), and peptide representing histone H3 residues 1-15 containing C-terminal biotin (appended to a C-terminal amide-capped lysine, synthesized by Biopeptide and HPLC-purified to greater than 95% purity) were added to initiate the reaction (both substrates were present in the final reaction mixture at their respective Km values, an assay format referred to as “balanced conditions”). Reactions were incubated for 60 minutes at room temperature and quenched with 10 μL per well of 400 μM unlabeled SAM, then transferred to a 384-well streptavidin Flashplate (PerkinElmer) and washed in a Biotek ELx-405 well washer with 0.1% Tween after 60 minutes. 384-well Flashplates were read on a TopCount microplate reader (PerkinElmer).

The target of another experiment is T2, EHMT1 (Homo sapiens, UniProt Q9H9B1).
T2 sequence (Q9H9B1 1-1298): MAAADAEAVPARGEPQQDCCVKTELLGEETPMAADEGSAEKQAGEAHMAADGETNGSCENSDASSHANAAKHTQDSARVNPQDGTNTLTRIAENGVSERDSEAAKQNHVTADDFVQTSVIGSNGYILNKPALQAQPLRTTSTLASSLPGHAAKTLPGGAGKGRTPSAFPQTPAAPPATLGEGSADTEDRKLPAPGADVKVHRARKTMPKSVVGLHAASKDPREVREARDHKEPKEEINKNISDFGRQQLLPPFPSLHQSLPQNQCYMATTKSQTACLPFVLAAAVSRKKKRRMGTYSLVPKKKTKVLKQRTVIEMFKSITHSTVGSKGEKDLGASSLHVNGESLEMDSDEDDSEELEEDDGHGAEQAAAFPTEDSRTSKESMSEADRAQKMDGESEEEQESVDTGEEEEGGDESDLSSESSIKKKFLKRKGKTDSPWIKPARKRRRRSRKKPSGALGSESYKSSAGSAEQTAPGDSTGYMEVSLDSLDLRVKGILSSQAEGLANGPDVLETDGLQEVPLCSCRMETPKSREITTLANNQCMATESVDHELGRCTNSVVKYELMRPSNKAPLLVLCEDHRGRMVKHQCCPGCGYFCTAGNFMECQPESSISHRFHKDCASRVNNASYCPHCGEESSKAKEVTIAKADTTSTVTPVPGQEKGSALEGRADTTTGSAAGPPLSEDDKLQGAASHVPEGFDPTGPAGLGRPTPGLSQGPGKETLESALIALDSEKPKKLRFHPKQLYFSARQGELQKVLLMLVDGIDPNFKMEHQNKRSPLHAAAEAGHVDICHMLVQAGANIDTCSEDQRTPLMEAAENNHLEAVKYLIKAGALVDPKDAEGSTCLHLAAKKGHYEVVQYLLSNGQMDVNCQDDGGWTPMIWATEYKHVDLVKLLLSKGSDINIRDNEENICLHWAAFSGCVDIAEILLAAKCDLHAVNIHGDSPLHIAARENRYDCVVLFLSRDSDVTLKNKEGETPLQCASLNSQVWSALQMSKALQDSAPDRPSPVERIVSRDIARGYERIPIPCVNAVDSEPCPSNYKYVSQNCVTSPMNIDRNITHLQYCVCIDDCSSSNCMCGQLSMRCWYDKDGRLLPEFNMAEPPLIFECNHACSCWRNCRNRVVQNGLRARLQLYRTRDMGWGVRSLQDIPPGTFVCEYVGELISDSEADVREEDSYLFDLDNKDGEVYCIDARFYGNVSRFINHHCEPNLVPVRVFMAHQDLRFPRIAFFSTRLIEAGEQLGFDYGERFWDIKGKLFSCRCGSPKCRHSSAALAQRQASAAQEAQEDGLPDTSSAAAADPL
Briefly: EHMT1 PEP enzyme assay. In kind it is biochemical. To be noted: Table 3; read-out: EHMT1 PEP (IC50 μM).

Where only a bound is given, the exact number is not on record here.

Regarding `CNc1cc(C)nc(Nc2ccc(Br)c(CNCCN3CCCC3)c2)n1` [Compound 1, 2-N-[4-bromo-3-([[2-(pyrrolidin-1-yl)ethyl]amino]methyl)phenyl]-4-N,6-dimethylpyrimidine-2,4-diamine], the figures for the IC50 on human EHMT2 913-1193 and at EHMT1 were 0.1 to 1 µM and under 0.1 µM, respectively.

In the case of `CNc1cc(C)nc(Nc2ccc(Cl)c(C(=O)NCC3COC3)c2)n1` [Compound 2, 2-chloro-5-[[4-methyl-6-(methylamino)pyrimidin-2-yl]amino]-N-(oxetan-3-ylmethyl)benzamide], the IC50 (as a rule, the concentration at which inhibition is half-maximal) at human EHMT2 913-1193 is over 10 µM; on EHMT1 it was 1 to 10 µM.

For `CNc1cc(C)nc(Nc2ccc(Cl)c(C(=O)NCC3CCC3)c2)n1` [Compound 3], the IC50 at human EHMT2 913-1193 was in the range of 1 to 10 µM; on EHMT1, 0.1 to 1 µM.

For `CNc1cc(C)nc(Nc2ccc(Cl)c(C(=O)NCC3CC3)c2)n1` [Compound 4], the values for the 50% inhibitory concentration (IC50) on human EHMT2 913-1193 and on EHMT1 were over 10 µM and 1 to 10 µM, respectively.

Consider `CNc1cc(C)nc(Nc2ccc(Cl)c(C(=O)Nc3cccnn3)c2)n1` [Compound 5], for which the results for the half-maximal inhibitory concentration (IC50) at human EHMT2 913-1193 and at EHMT1 were over 10 µM and 1 to 10 µM, respectively.

Turning to `CNc1cc(C)nc(Nc2ccc(Cl)c(C(=O)Nc3ncco3)c2)n1` [Compound 6], the 50% inhibitory concentration (IC50) on human EHMT2 913-1193 and on EHMT1 was 1 to 10 µM each time.

As for `CNc1cc(C)nc(Nc2ccc(Cl)c(C(=O)NCCN3CCCC3)c2)n1` [Compound 7], the IC50 on human EHMT2 913-1193 was 0.1 to 1 µM; on EHMT1, under 0.1 µM.

On to `CNc1cc(C)nc(Nc2ccc(Cl)c(C(=O)NC3CCOCC3)c2)n1` [Compound 8], for which the 50% inhibitory concentration (IC50) at human EHMT2 913-1193 and at EHMT1 was over 10 µM throughout.

As for `CCCCNC(=O)c1cc(Nc2nc(C)cc(NC)n2)ccc1Cl` [Compound 9], the IC50 on human EHMT2 913-1193 fell in the range of 1 to 10 µM; on EHMT1, 0.1 to 1 µM.

On to `CNc1cc(C)nc(Nc2ccc(Cl)c(C(=O)Nc3ccccc3)c2)n1` [Compound 10], for which the IC50 on human EHMT2 913-1193 was over 10 µM; on EHMT1 it was 1 to 10 µM.

Take `CNc1cc(C)nc(Nc2ccc(C3CC3)c(CNCCN3CCCC3)c2)n1` [Compound 11, 2-N-[4-cyclopropyl-3-([[2-(pyrrolidin-1-yl)ethyl]amino]methyl)phenyl]-4-N,6-dimethylpyrimidine-2,4-diamine]: the concentration for half-maximal inhibition (IC50) was 0.1 to 1 µM on human EHMT2 913-1193 and under 0.1 µM at EHMT1.

For `CNc1cc(C)nc(Nc2ccc(Cl)c(C(=O)Nc3cscn3)c2)n1` [Compound 13], the IC50 on human EHMT2 913-1193 fell in the range of 1 to 10 µM; at EHMT1 it was 0.1 to 1 µM.

Consider `CNc1cc(C)nc(Nc2ccc(Cl)c(C(=O)Nc3cocn3)c2)n1` [Compound 14, 2-chloro-5-[[4-methyl-6-(methylamino)pyrimidin-2-yl]amino]-N-(1,3-oxazol-4-yl)benzamide], for which the IC50 at human EHMT2 913-1193 was over 10 µM; at EHMT1, 1 to 10 µM.

Turning to `CNc1cc(C)nc(Nc2ccc(Cl)c(C(=O)Nc3cn(C)cn3)c2)n1` [Compound 15], the half-maximal inhibitory concentration (IC50) at human EHMT2 913-1193 and at EHMT1 was over 10 µM each time.

With `CNc1cc(C)nc(Nc2ccc(OC)c(C#CCN3CCNCC3)c2)n1` [Compound 28, 2-N-[4-methoxy-3-[3-(piperazin-1-yl)prop-1-yn-1-yl]phenyl]-4-N,6-dimethylpyrimidine-2,4-diamine], the IC50 on human EHMT2 913-1193 was 0.1 to 1 µM; at EHMT1, under 0.1 µM.

With `CNc1cc(C)nc(Nc2ccc(C)c(C(=O)Nc3cc(C#N)ccn3)c2)n1` [Compound 30], the IC50 on human EHMT2 913-1193 was over 10 µM; at EHMT1, 1 to 10 µM.

Take `CNc1cc(C)nc(Nc2ccc(OC)c(CNCCN3CCC[C@H]3C)c2)n1` [Compound 31]: the half-inhibitory concentration (IC50) was 0.1 to 1 µM at human EHMT2 913-1193 and under 0.1 µM on EHMT1.

`CNc1cc(C)nc(Nc2ccc(OC)c(CNCCN3CCC[C@@H]3C)c2)n1` [Compound 32]: the IC50 on human EHMT2 913-1193 was over 10 µM; at EHMT1 it was 0.1 to 1 µM.

For the compound `CNc1cc(C)nc(Nc2ccc(C)c(C(=O)Nc3ncn(C)n3)c2)n1` [Compound 33], the 50% inhibitory concentration (IC50) at human EHMT2 913-1193 is over 10 µM; on EHMT1, 1 to 10 µM.

Take `CNc1cc(C)nc(Nc2ccc(OC)c(CNCCN3CC(C)C3)c2)n1` [Compound 35]: the half-maximal inhibitory concentration (IC50) on human EHMT2 913-1193 and at EHMT1 was over 10 µM each time.

In the case of `CNc1cc(C)nc(Nc2ccc(C)c(C(=O)Nc3cn(C4CC4)cn3)c2)n1` [Compound 36], the IC50 at human EHMT2 913-1193 and at EHMT1 was over 10 µM throughout.

Take `CNc1cc(C)nc(Nc2ccc(C)c(C(=O)Nc3c[nH]cn3)c2)n1` [Compound 37]: the IC50 on human EHMT2 913-1193 and on EHMT1 was 1 to 10 µM each time.

For the compound `CNc1cc(C)nc(Nc2ccc(OC)c(CNCCN3CC[C@@H](C)C3)c2)n1` [Compound 38], the half-maximal inhibitory concentration (IC50) fell in the range of 1 to 10 µM on human EHMT2 913-1193 and 0.1 to 1 µM on EHMT1.

In the case of `CNc1cc(C)nc(Nc2ccc(OC)c(CNCCN3CC[C@H](C)C3)c2)n1` [Compound 39], the IC50 at human EHMT2 913-1193 and on EHMT1 was 0.1 to 1 µM in each case.

With `CNc1cc(C)nc(Nc2ccc(OC)c(OC[C@H](O)CN3CCCCC3)c2)n1` [Compound 40], the IC50 at human EHMT2 913-1193 and on EHMT1 was over 10 µM in each case.

Consider `CNc1cc(C)nc(Nc2ccc(OC)c(OC[C@H](O)CN3CC4(CC4)C3)c2)n1` [Compound 41], for which the concentration for half-maximal inhibition (IC50) on human EHMT2 913-1193 and at EHMT1 was over 10 µM throughout.

With `CNc1cc(C)nc(Nc2ccc(OC)c(CNC[C@@H](C)N3CCCC3)c2)n1` [Compound 42], the IC50 on human EHMT2 913-1193 and at EHMT1 was 0.1 to 1 µM each time.

With `CNc1cc(C)nc(Nc2ccc(OC)c(CNC[C@H](C)N3CCCC3)c2)n1` [Compound 43], the half-inhibitory concentration (IC50) at human EHMT2 913-1193 and at EHMT1 was over 10 µM in each case.

`CNc1cc(C)nc(Nc2ccc(OC)c(C#CC[N+](C)(C)CCN)c2)n1` [Compound 45]: the IC50 at human EHMT2 913-1193 and on EHMT1 was over 10 µM in each case.

For `CNc1cc(C)nc(Nc2ccc(OC)c(CN[C@@H](C)CN3CCCC3)c2)n1` [Compound 47], the IC50 on human EHMT2 913-1193 and on EHMT1 was 0.1 to 1 µM each time.

On to `CNc1cc(C)nc(Nc2ccc(OC)c(CN[C@H](C)CN3CCCC3)c2)n1` [Compound 48], for which the IC50 on human EHMT2 913-1193 lay within 1 to 10 µM; at EHMT1, 0.1 to 1 µM.

Values taken from patent US20200317642A1, “AMINE-SUBSTITUTED HETEROCYCLIC COMPOUNDS AS EHMT2 INHIBITORS AND DERIVATIVES THEREOF” (Epizyme, Inc., priority 2017, published 2020).
